Reference: ChEMBL document CHEMBL5113550, “Optimization of Pyrimidine Compounds as Potent JAK1 Inhibitors and the Discovery of R507 as a Clinical Candidate” (ACS Med Chem Lett, 2022)

Tests used:
JAK3/JAK1 = JAK3/JAK1 (Homo sapiens, UniProt P23458+P52333); experiment: Inhibition of JAK1/JAK3 in human primary T-cells assessed as reduction of IL-2 stimulated STAT5 phosphorylation preincubated for 1 hr followed by IL-2 stimulation for 15 mins by FACS method; type: cell-based, T-cell
[1] = Plasma protein binding in rat; type: ADME, cell-free; details: read-out: PPB (converted)
[2] = Plasma protein binding in human; type: ADME, cell-free; details: read-out: PPB (converted)
[3] = Inhibition of IL-2 stimulated IFN-gamma production in BALB/c mouse at 40 mg/kg, po pretreated for 30 mins followed by IL-2 stimulation and measured after 4 hrs by ELISA; type: functional; details: time 4.5 hrs
[4] = biological target: Tyrosine-protein kinase JAK2 (Homo sapiens, UniProt O60674); experiment: Inhibition of JAK2 signaling pathway in human CHEP cells assessed as inhibition of EPO-induced cell survival preincubated for 1 hr followed by EPO addition and measured after 48 hrs by CellTiter-Glo luminescent assay; type: toxicity, cell-based
Tyrosine-protein kinase JAK2, sequence (O60674 whole entry): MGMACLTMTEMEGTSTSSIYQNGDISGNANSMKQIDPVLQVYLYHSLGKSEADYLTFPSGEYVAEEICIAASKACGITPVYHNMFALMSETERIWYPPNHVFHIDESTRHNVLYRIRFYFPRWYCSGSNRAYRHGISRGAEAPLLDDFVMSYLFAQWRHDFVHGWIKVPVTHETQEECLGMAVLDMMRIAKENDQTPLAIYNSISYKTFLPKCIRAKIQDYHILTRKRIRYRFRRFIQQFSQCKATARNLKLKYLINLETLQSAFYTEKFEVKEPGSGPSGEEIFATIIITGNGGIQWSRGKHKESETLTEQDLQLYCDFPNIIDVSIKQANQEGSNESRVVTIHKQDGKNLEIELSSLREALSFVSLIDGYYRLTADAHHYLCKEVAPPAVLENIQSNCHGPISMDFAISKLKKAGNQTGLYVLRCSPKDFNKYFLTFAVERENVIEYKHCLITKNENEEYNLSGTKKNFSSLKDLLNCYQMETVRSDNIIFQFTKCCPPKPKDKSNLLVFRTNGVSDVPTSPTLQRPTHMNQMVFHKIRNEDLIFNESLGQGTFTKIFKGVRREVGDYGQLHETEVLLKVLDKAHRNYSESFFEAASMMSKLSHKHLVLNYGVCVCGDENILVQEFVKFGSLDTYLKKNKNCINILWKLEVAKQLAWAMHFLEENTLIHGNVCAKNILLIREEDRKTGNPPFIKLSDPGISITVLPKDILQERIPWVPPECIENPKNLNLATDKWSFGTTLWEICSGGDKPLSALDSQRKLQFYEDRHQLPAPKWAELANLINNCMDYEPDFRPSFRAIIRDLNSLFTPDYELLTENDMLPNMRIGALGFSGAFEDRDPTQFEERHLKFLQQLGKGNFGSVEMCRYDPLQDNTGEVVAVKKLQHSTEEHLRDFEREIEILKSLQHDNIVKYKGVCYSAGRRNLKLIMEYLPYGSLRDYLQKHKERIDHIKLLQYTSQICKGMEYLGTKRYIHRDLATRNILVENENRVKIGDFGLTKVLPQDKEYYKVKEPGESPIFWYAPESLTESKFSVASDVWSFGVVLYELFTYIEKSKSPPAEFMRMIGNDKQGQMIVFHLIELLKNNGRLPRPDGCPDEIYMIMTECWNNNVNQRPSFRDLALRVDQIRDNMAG

Homo sapiens = organism: Homo sapiens; experiment: Selectivity ratio of IC50 for inhibition of JAK2 signaling pathway in EPO-stimulated human CHEP cells to IC50 for inhibition of JAK1/JAK3 in human primary T-cells assessed as reduction of IL-2 stimulated STAT5 phosphorylation
[5] = Inhibition of IL-2 stimulated IFN-gamma production in BALB/c mouse at 5 mg/kg, po pretreated for 30 mins followed by IL-2 stimulation and measured after 4 hrs by ELISA; type: functional; details: time 4.5 hrs
Cytochrome P450 3A4 [6] = biological target: T1, Cytochrome P450 3A4 (Homo sapiens, UniProt P08684); experiment: Inhibition of CYP3A4 (unknown origin) in absence of NADPH; type: ADME
T1 sequence (P08684 whole entry): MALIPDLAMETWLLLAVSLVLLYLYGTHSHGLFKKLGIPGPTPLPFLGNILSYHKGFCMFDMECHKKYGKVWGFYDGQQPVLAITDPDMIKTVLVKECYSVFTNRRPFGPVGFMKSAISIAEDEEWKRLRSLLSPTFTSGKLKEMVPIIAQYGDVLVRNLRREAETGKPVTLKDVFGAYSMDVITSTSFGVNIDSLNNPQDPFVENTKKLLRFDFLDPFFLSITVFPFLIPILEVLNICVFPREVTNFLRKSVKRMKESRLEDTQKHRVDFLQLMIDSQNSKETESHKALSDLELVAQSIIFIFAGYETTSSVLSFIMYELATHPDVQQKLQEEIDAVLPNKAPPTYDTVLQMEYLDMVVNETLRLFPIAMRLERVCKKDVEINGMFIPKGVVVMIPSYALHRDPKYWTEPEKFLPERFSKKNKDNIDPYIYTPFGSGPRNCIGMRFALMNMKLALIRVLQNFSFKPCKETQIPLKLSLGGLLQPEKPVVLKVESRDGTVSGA

Cytochrome P450 3A4 [7] = biological target: T1, Cytochrome P450 3A4; experiment: Inhibition of CYP3A4 (unknown origin) in presence of NADPH; type: ADME
[8] = Oral bioavailability in Sprague-Dawley rat 5 mg/kg; type: ADME, organism-based; details: in vivo
[9] = AUC in Sprague-Dawley rat 5 mg/kg, po; type: ADME, organism-based; set-up: dose 5 mg/kg, route po; details: in vivo
Rattus norvegicus [10] = experiment: Antiarthritic activity against collagen-induced arthritis Lewis rat model assessed as reduction in disease severity by measuring inhibition of hind limb clinical score at 50 mg/kg, po bid measured upto 20 days; type: functional; details: 480 h, time <= 20 day
Rattus norvegicus [11] = experiment: Antiarthritic activity against collagen-induced arthritis Lewis rat model assessed as reduction in disease severity by measuring inhibition of hind limb clinical score at 100 mg/kg, po qd measured upto 20 days; type: functional; details: 480 h, time <= 20 day
Rattus norvegicus [12] = experiment: Antiarthritic activity against collagen-induced arthritis Lewis rat model assessed as reduction in disease severity by measuring inhibition of hind limb clinical score at 25 mg/kg, po bid measured upto 20 days; type: functional; details: 480 h, time <= 20 day
Cytochrome P450 1A2 = biological target: T2, Cytochrome P450 1A2 (Homo sapiens, UniProt P05177); experiment: Inhibition of CYP1A2 (unknown origin); type: ADME
T2 sequence (P05177 whole entry): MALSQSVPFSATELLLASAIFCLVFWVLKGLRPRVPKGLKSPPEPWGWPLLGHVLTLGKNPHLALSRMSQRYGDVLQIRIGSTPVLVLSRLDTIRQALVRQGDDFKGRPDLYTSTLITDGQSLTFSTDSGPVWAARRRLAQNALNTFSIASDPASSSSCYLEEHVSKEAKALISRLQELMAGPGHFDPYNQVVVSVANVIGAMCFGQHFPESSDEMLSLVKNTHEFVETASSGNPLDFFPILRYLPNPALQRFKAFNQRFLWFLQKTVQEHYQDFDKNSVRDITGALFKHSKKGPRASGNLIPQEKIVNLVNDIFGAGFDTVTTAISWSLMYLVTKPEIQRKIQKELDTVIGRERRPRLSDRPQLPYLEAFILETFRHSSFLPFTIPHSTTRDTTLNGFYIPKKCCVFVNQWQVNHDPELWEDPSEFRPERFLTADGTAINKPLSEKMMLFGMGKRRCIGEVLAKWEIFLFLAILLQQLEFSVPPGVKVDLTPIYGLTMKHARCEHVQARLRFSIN

JAK3/JAK1, sequence (P52333 whole entry): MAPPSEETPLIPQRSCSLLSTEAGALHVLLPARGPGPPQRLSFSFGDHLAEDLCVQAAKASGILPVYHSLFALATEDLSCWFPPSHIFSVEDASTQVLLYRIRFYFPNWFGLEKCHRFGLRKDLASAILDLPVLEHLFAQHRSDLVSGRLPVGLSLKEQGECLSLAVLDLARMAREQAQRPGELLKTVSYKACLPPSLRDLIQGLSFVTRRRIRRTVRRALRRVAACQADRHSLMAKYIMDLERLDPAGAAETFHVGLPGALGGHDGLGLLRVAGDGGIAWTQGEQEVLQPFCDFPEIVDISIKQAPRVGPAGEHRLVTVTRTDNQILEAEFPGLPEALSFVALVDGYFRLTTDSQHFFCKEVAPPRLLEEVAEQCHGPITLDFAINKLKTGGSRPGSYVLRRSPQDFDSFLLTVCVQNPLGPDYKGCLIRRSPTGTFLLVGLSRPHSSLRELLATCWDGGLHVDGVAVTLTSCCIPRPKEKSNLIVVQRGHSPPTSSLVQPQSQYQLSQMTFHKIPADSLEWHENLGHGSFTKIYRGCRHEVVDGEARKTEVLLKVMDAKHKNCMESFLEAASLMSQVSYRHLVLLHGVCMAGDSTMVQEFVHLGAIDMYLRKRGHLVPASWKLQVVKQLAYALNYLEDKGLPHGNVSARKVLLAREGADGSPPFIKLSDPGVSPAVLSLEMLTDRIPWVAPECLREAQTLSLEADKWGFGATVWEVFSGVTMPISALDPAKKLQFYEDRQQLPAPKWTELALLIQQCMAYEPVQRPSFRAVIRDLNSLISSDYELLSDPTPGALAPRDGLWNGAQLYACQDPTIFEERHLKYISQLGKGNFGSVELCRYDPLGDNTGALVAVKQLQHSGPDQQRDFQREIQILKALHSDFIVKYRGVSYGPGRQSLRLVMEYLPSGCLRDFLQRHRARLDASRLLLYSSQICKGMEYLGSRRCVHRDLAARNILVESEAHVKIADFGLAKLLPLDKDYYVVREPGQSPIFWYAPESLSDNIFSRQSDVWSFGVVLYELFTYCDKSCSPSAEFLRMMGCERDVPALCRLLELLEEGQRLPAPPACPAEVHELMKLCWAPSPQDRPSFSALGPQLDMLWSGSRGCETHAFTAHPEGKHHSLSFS
JAK3/JAK1, sequence (P23458 whole entry): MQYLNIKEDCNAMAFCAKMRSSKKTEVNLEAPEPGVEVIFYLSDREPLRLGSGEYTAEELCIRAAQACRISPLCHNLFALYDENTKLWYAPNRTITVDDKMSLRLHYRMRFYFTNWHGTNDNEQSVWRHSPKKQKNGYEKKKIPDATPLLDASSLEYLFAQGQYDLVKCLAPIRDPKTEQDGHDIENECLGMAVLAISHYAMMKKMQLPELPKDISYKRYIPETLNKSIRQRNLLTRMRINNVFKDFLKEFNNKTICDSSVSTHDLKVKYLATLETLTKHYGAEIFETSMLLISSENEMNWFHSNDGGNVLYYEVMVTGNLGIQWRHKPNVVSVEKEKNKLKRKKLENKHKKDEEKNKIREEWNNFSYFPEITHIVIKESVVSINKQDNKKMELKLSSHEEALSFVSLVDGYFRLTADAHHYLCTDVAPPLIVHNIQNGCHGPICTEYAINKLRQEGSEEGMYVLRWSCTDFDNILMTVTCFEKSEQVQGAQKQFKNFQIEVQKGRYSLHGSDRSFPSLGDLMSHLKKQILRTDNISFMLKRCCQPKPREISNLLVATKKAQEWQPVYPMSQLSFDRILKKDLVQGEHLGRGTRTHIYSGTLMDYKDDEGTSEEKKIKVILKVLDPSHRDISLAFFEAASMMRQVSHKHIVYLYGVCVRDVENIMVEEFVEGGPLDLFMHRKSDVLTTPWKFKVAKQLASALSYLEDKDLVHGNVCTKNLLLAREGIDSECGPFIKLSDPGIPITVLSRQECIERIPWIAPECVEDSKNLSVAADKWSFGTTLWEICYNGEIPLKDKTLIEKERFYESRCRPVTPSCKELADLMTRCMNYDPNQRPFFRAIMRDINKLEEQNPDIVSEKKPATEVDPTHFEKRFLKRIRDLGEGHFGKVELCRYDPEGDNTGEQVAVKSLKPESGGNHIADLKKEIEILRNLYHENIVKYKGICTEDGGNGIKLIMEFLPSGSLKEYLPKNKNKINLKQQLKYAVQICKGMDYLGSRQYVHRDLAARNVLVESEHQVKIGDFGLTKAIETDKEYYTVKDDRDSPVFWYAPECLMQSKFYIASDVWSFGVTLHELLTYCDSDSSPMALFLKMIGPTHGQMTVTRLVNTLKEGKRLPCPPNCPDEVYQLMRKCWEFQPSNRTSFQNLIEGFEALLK

| IC50 (Cytochrome P450 3A4 [6]) | IC50 (Cytochrome P450 3A4 [7]) | SMILES | inhibition in vivo at 40 mg/kg [3] | IC50 [4] | inhibition in vivo at 5 mg/kg [5] | further results |
| --- | --- | --- | --- | --- | --- | --- |
| > 10000 nM | 4000 nM | Cc1cnc(Nc2ccc(N3CCN(C)CC3)nc2)nc1Nc1ccc2oc(=O)[nH]c2c1 | 82% | 84 nM | 30% | IC50 (JAK3/JAK1): 20 nM; fraction unbound [1]: 0.16; fraction unbound [2]: 0.19; Ratio IC50 (Homo sapiens): 4; bioavailability [8]: 4% |
| > 10000 nM | > 10000 nM | COc1cc(C)cc(Nc2ncc(C)c(Nc3ccc4oc(=O)[nH]c4c3)n2)c1 | 91% | 354 nM | 55% |  |
|  |  | COc1cc(Nc2ncc(C)c(Nc3ccc4oc(=O)[nH]c4c3)n2)cc(C)c1F.O=S(=O)(O)c1ccccc1 |  |  |  | bioavailability [8]: 37%; AUC [9]: 507 ng·h/mL; inhibition in vivo at 50 mg/kg (Rattus norvegicus [10]): 98%; inhibition in vivo at 100 mg/kg (Rattus norvegicus [11]): 98%; inhibition in vivo at 25 mg/kg (Rattus norvegicus [12]): 75% |
|  |  | Cc1cnc(Nc2ccc(C#N)cc2)nc1Nc1ccc2oc(=O)[nH]c2c1 | 0% |  |  |  |
| > 10000 nM | 1100 nM | COc1cc(Nc2ncc(C)c(Nc3ccc4oc(=O)[nH]c4c3)n2)cc(OC)c1OC | 88% | 81 nM |  | IC50 (JAK3/JAK1): 26 nM; Ratio IC50 (Homo sapiens): 3 |
| > 10000 nM | 2700 nM | COc1cc(Nc2ncc(C)c(Nc3ccc4oc(=O)[nH]c4c3)n2)cc(C)c1OC |  | 42 nM |  |  |
| > 10000 nM | 2900 nM | COc1cc(Nc2ncc(C)c(Nc3ccc4oc(=O)[nH]c4c3)n2)cc(C)c1C | 90% | 1110 nM | 68% | Ki (Cytochrome P450 1A2): 6000 nM |
| 4800 nM | 400 nM | COc1ccc(Nc2ncc(C)c(Nc3ccc4oc(=O)[nH]c4c3)n2)cc1C(F)(F)F | 32% | 1980 nM |  |  |
| 7200 nM | 500 nM | COc1cc(Nc2ncc(C)c(Nc3ccc4oc(=O)[nH]c4c3)n2)cc(C(F)(F)F)c1 | 90% | 1690 nM | 78% |  |
|  |  | Cc1cnc(Nc2ccc(N3CCOCC3)nc2)nc1Nc1ccc2oc(=O)[nH]c2c1 | 36% |  |  | IC50 (JAK3/JAK1): 22 nM; bioavailability [8]: < 1% |
| > 10000 nM | 3000 nM | COc1cc(Nc2ncc(C)c(Nc3ccc4oc(=O)[nH]c4c3)n2)cc(C(F)F)c1 | 92% | 173 nM | 66% |  |
